Experimental data from ChEMBL document CHEMBL1155857, “Benzodiazepine ligands can act as allosteric modulators of the Type 1 cholecystokinin receptor” (Bioorg Med Chem Lett, 2008).

Target: T1, Cholecystokinin receptor type A (Rattus norvegicus) (UniProt P30551)
T1 sequence (whole entry): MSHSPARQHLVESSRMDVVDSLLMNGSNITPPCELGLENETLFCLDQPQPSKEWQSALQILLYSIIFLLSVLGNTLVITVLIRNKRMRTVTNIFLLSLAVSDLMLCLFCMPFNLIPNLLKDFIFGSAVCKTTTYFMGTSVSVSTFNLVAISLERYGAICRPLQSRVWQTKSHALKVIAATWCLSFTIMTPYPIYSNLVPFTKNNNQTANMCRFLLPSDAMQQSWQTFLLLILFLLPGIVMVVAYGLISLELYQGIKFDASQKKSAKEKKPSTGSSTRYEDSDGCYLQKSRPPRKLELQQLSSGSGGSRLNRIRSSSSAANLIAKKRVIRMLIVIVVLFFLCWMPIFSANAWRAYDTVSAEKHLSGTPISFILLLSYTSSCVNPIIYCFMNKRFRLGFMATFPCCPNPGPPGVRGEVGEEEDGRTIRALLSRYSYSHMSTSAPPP
Assay: Displacement of [125I]CCK from rat CCK1 receptor expressed in CHO cells
Assay type: cell-based

CN1C(=O)[C@@H](NC(=O)c2cc3ccccc3[nH]2)N=C(c2ccccc2)c2ccccc21
pKb: 8.35
